The term DC50 denotes the concentration at which degradation of the target reaches its halfway point. Read a high DC50 as degradation only at high concentration. For orientation: Dmax means the greatest extent of degradation seen.

Our source for the DC50 and Dmax values is patent US20260274832A1, “COMPOUNDS AND THEIR USE IN TREATING CANCER” (ASTRAZENECA AB, priority 2023, published 2026).

Experiment [1] addresses T1, AR (AR-full length) in LNCaP cells (Homo sapiens, UniProt P10275, T878A).
T1 construct: the prostate cancer cell line LNCaP (expressing AR-full length); endogenous in cells; host or cells: LNCaP
Description: LNCaP Androgen Receptor Imaging Assay (immunofluorescence of endogenous nuclear AR). It is filed as cell-based. The following applies: 24 h incubation; for DC50: concentration giving 50% of maximum degradation of AR per curve fit, single experiment or average of two or more; for Dmax: LNCaP, maximum degradation observed, normalized as % of positive control (prior art AR PROTAC at 3 μM). In a few lines: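 LNCaP cells (12,000/well) received a 12-point compound dose series (0.3% DMSO) for 24 h at 37° C., then were PFA-fixed and stained for AR (AR441) and nuclei (DRAQ5). Nuclear AR was quantified by imaging, normalized to a 3 μM AR PROTAC control; DC50 and Dmax came from Hill/bell curve fits.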

Experiment [2] addresses T2, AR (L702H) in LNCaP cells (Homo sapiens, UniProt P10275, L702H/T878A).
T2 construct: engineered to introduce the mutation L702H into the AR gene using CRISPR/Cas9; endogenous in cells; host or cells: LNCaP cells edited by CRISPR/Cas9 at the AR gene
Description: LNCaP Androgen Receptor L702H Imaging Assay (LNCaP cells engineered by CRISPR/Cas9). It is filed as cell-based. The following applies: LNCaP cells with AR L702H mutation, 24 h incubation; for DC50: concentration giving 50% of maximum degradation of AR (L702H) per curve fit; for Dmax: LNCaP, maximum degradation observed, normalized as % of positive control. An outline of the steps:
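CRISPR-engineered LNCaP cells carrying AR L702H were treated 24 h at 37 °C with a 12-point compound dose response (0.3% DMSO), then fixed and immunostained for AR with DRAQ5 nuclear counterstain. Nuclear AR was quantified by imaging, normalized to positive control; DC50 and Dmax came from Hill or bell-shaped fits.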

T2 sequence (P10275 whole entry L702H/T878A): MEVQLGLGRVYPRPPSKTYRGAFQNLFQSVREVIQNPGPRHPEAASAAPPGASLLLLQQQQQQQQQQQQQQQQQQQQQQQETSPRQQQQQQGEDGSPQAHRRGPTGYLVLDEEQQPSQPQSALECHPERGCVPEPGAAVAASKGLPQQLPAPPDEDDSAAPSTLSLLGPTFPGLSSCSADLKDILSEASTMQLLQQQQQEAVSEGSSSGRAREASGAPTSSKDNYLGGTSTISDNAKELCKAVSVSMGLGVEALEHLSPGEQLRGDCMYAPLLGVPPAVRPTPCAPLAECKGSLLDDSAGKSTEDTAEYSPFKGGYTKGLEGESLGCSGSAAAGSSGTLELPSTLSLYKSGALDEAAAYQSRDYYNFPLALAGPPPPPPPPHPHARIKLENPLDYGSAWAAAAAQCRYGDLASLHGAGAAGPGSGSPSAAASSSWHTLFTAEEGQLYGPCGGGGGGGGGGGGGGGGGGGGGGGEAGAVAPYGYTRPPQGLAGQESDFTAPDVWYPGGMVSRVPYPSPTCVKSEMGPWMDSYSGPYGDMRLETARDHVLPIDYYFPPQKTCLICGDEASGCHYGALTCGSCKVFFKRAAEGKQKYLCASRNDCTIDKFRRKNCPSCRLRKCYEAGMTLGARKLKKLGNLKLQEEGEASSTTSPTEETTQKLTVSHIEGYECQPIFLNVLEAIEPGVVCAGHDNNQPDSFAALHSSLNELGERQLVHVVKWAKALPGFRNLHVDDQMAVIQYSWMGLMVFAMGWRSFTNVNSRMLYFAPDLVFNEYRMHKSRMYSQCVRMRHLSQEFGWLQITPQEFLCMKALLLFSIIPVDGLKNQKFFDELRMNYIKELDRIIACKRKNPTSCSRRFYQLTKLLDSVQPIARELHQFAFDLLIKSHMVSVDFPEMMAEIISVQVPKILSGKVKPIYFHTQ
T2 sequence (Q96SW2 whole entry partner): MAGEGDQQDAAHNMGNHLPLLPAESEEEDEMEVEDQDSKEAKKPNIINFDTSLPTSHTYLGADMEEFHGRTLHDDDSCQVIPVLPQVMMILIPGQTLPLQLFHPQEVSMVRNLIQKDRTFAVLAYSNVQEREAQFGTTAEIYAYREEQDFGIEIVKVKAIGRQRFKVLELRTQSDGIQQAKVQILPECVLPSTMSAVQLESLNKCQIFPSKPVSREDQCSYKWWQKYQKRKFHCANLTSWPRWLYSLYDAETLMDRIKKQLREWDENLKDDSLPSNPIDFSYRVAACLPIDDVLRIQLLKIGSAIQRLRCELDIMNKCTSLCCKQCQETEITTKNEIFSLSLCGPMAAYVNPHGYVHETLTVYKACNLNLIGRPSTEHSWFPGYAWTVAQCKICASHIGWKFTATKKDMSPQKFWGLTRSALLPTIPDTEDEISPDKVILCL
T1 sequence (P10275 whole entry T878A): as the sequence (P10275 whole entry L702H/T878A) above, with H702L counted along it
T1 sequence (Q96SW2 whole entry partner): as the sequence (Q96SW2 whole entry partner) above

On to `Cc1ccc(N2CCC(c3ccc(OCCCCN4CCN(c5ccc6c(c5)CN(C5CCC(=O)NC5=O)C6=O)CC4)cc3)CC2)c2[nH]cc(C#N)c12` (stereo not shown) [Example 28, 7-{4-[4-(4-{4-[2-(2,6-dioxopiperidin-3-yl)-1-oxo-2,3-dihydro-1H-isoindol-5-yl]piperazin-1-yl}butoxy)phenyl]piperidin-1-yl}-4-methyl-1H-indole-3-carbonitrile], for which, in experiment [1], the DC50 came out at 5 nM and the Dmax amounted to 96%. Also, in experiment [2], the 50% degradation concentration (DC50) came out at 23 nM and the Dmax turned out to be 83%.
For the molecule `Cc1ccc(N2CCC(c3ccc(OCCCCN4CCC(n5ccc6c(N7CCC(=O)NC7=O)cccc65)CC4)cc3)CC2)c2[nH]cc(C#N)c12` [Example 29, 7-{4-[4-(4-{4-[4-(2,4-Dioxo-1,3-diazinan-1-yl)-1H-indol-1-yl]piperidin-1-yl}butoxy)phenyl]piperidin-1-yl}-4-methyl-1H-indole-3-carbonitrile], the DC50 was 79 nM in experiment [1] and 60 nM in experiment [2]. Further, the results for the Dmax in experiment [1] and in experiment [2] were 94% and 74%, respectively.
The like results for `COc1nc(N2CCN(CC3CCN(c4ccc(C5CCN(c6ccc(C)c7c(C#N)c[nH]c67)CC5)cc4)CC3)CC2)cc2c1C(=O)N(C1CCC(=O)NC1=O)C2` (stereo not shown) [Example 30, 7-(4-{4-[4-({4-[2-(2,6-Dioxopiperidin-3-yl)-4-methoxy-3-oxo-2,3-dihydro-1H-pyrrolo[3,4-c]pyridin-6-yl]piperazin-1-yl}methyl)piperidin-1-yl]phenyl}piperidin-1-yl)-4-methyl-1H-indole-3-carbonitrile] were, in that order, 25 nM, 83 nM, 98% and 83%.
Consider `COc1nc(N2CCN(CCCCOc3ccc(C4CCN(c5ccc(C)c6c(C#N)c[nH]c56)CC4)cc3)CC2)cc2c1C(=O)N(C1CCC(=O)NC1=O)C2` (stereo not shown) [Example 31, 7-{4-[4-(4-{4-[2-(2,6-Dioxopiperidin-3-yl)-4-methoxy-3-oxo-2,3-dihydro-1H-pyrrolo[3,4-c]pyridin-6-yl]piperazin-1-yl}butoxy)phenyl]piperidin-1-yl}-4-methyl-1H-indole-3-carbonitrile], for which the half-maximal degradation concentration (DC50) came to 8 nM in experiment [1] and 22 nM in experiment [2]. Also, the Dmax in experiment [1] was determined as 94%; in experiment [2], 88%.
The corresponding values for `COc1nc(N2CCN(CCCCOc3ccc(C4CCN(c5ccc(Cl)c6c(C#N)c[nH]c56)CC4)cc3)CC2)cc2c1C(=O)N(C1CCC(=O)NC1=O)C2` (stereo not shown) [Example 32, 4-Chloro-7-{4-[4-(4-{4-[2-(2,6-dioxopiperidin-3-yl)-4-methoxy-3-oxo-2,3-dihydro-1H-pyrrolo[3,4-c]pyridin-6-yl]piperazin-1-yl}butoxy)phenyl]piperidin-1-yl}-1H-indole-3-carbonitrile] are 5 nM, 10 nM, 99% and 100%.
For `N#Cc1c[nH]c2c(N3CCC(c4ccc(OCCCCN5CCC(n6ccc7c(N8CCC(=O)NC8=O)cccc76)CC5)cc4)CC3)ccc(F)c12` [Example 33, 7-{4-[4-(4-{4-[4-(2,4-Dioxo-1,3-diazinan-1-yl)-1H-indol-1-yl]piperidin-1-yl}butoxy)phenyl]piperidin-1-yl}-4-fluoro-1H-indole-3-carbonitrile], in experiment [1], the DC50 was found to be 12 nM and the Dmax came out at 97%. In experiment [2], the DC50 stood at 33 nM and the Dmax was determined as 90%.
For the molecule `COc1nc(N2CCN(CC3CCN(c4ccc(C5CCN(c6ccc(Cl)c7c(C#N)c[nH]c67)CC5)cc4)CC3)CC2)cc2c1C(=O)N(C1CCC(=O)NC1=O)C2` (stereo not shown) [Example 34, 4-Chloro-7-(4-{4-[4-({4-[2-(2,6-dioxopiperidin-3-yl)-4-methoxy-3-oxo-2,3-dihydro-1H-pyrrolo[3,4-c]pyridin-6-yl]piperazin-1-yl}methyl)piperidin-1-yl]phenyl}piperidin-1-yl)-1H-indole-3-carbonitrile], in experiment [1], the half-maximal degradation concentration (DC50) amounted to 7 nM and the Dmax was 98%. Further, in experiment [2], it took 12 nM to reach half-maximal degradation (DC50) and the Dmax came out at 102%.
The corresponding values for `COc1nc(N2CCN(CC3CCN(c4ccc(C5CCN(c6ccc(F)c7c(C#N)c[nH]c67)CC5)cc4)CC3)CC2)cc2c1C(=O)N(C1CCC(=O)NC1=O)C2` (stereo not shown) [Example 37, 7-(4-{4-[4-({4-[2-(2,6-Dioxopiperidin-3-yl)-4-methoxy-3-oxo-2,3-dihydro-1H-pyrrolo[3,4-c]pyridin-6-yl]piperazin-1-yl}methyl)piperidin-1-yl]phenyl}piperidin-1-yl)-4-fluoro-1H-indole-3-carbonitrile] are 15 nM, 90%, 11 nM and 100%.
The like results for `COc1nc(N2CCN(CC3CCN(c4ccc([C@@H]5CCCN(c6ccc(Cl)c7c(C#N)c[nH]c67)C5)cc4)CC3)CC2)cc2c1C(=O)N(C1CCC(=O)NC1=O)C2` (stereo partly drawn) [Example 38, 4-Chloro-7-[(3S)-3-{4-[4-({4-[2-(2,6-dioxopiperidin-3-yl)-4-methoxy-3-oxo-2,3-dihydro-1H-pyrrolo[3,4-c]pyridin-6-yl]piperazin-1-yl}methyl)piperidin-1-yl]phenyl}piperidin-1-yl]-1H-indole-3-carbonitrile] were, in that order, 9 nM, 97%, 12 nM and 95%.
The like results for `COc1cc(N2CCN(CC3CCN(c4ccc(C5CCN(c6ccc(C)c7c(C#N)c[nH]c67)CC5)c(F)c4)CC3)CC2)cc2c1C(=O)N(C1CCC(=O)NC1=O)C2` (stereo not shown) [Example 41, 7-(4-{4-[4-({4-[2-(2,6-Dioxopiperidin-3-yl)-7-methoxy-1-oxo-2,3-dihydro-1H-isoindol-5-yl]piperazin-1-yl}methyl)piperidin-1-yl]-2-fluorophenyl}piperidin-1-yl)-4-methyl-1H-indole-3-carbonitrile] were, in that order, 17 nM, 98%, 29 nM and 95%.
For the molecule `Cc1ccc(N2CCC(c3ccc(N4CCC(CN5CCC(n6ccc7c(N8CCC(=O)NC8=O)cccc76)CC5)CC4)cc3F)CC2)c2[nH]cc(C#N)c12` [Example 42, 7-(4-{4-[4-({4-[4-(2,4-Dioxo-1,3-diazinan-1-yl)-1H-indol-1-yl]piperidin-1-yl}methyl)piperidin-1-yl]-2-fluorophenyl}piperidin-1-yl)-4-methyl-1H-indole-3-carbonitrile], the DC50 was found to be 29 nM in experiment [1] and 62 nM in experiment [2]. The values for the Dmax in experiment [1] and in experiment [2] were 101% and 107%, respectively.
For `COc1cc(N2CCN(CC3CCN(c4ccc(C5CCN(c6ccc(C)c7c(C#N)c[nH]c67)CC5)c(F)c4)CC3)CC2)cc2c1C(=O)N(C1CCC(=O)NC1=O)C2=O` (stereo not shown) [Example 43, 7-(4-{4-[4-({4-[2-(2,6-Dioxopiperidin-3-yl)-7-methoxy-1,3-dioxo-2,3-dihydro-1H-isoindol-5-yl]piperazin-1-yl}methyl)piperidin-1-yl]-2-fluorophenyl}piperidin-1-yl)-4-methyl-1H-indole-3-carbonitrile], in experiment [1], the DC50 stood at 73 nM and the Dmax was 94%. In addition, in experiment [2], the 50% degradation concentration (DC50) worked out at 160 nM and the Dmax turned out to be 97%.
The corresponding values for `N#Cc1c[nH]c2c(N3CCC(c4ccc(OCCCCN5CCN(c6ccc7c(c6)CN(C6CCC(=O)NC6=O)C7=O)CC5)cc4)CC3)ccc(F)c12` (stereo not shown) [Example 44, 7-{4-[4-(4-{4-[2-(2,6-Dioxopiperidin-3-yl)-1-oxo-2,3-dihydro-1H-isoindol-5-yl]piperazin-1-yl}butoxy)phenyl]piperidin-1-yl}-4-fluoro-1H-indole-3-carbonitrile] are 4 nM, 95%, 2 nM and 96%.
The like results for `N#Cc1c[nH]c2c(N3CCC(c4ccc(OCCCCN5CCN(c6ccc7c(c6)CN(C6CCC(=O)NC6=O)C7=O)CC5)cc4)CC3)ccc(Cl)c12` (stereo not shown) [Example 45] were, in that order, 3 nM, 96%, 6 nM and 95%.
The corresponding values for `N#Cc1c[nH]c2c(N3CCC(c4ccc(OCCCCN5CCC(n6ccc7c(N8CCC(=O)NC8=O)cccc76)CC5)cc4)CC3)ccc(Cl)c12` [Example 46, 4-Chloro-7-{4-[4-(4-{4-[4-(2,4-dioxo-1,3-diazinan-1-yl)-1H-indol-1-yl]piperidin-1-yl}butoxy)phenyl]piperidin-1-yl}-1H-indole-3-carbonitrile] are 4 nM, 101%, 12 nM and 98%.
As to `COc1nc(N2CCN(CC3CCN(c4ccc([C@H]5CCCN(c6ccc(Cl)c7c(C#N)c[nH]c67)C5)cc4)CC3)CC2)cc2c1C(=O)N(C1CCC(=O)NC1=O)C2` (stereo partly drawn) [Example 47, 4-Chloro-7-[(3R)-3-{4-[4-({4-[2-(2,6-dioxopiperidin-3-yl)-4-methoxy-3-oxo-2,3-dihydro-1H-pyrrolo[3,4-c]pyridin-6-yl]piperazin-1-yl}methyl)piperidin-1-yl]phenyl}piperidin-1-yl]-1H-indole-3-carbonitrile], in experiment [1], half-maximal degradation (DC50) was put at 7 nM and the Dmax amounted to 84%. For the same molecule, in experiment [2], the 50% degradation concentration (DC50) came out at 7 nM and the Dmax worked out at 100%.
